These results are taken from paper PMC7842926, “Synergistic effect and ultrastructural changes in Trypanosoma cruzi caused by isoobtusilactone A in short exposure of time” (PLoS ONE, 2021).

Series [1] relates to epimastigote forms of strain Dm28c. In words: Inhibition of metacyclogenesis. The format is cell-based. To be noted: Trypanosoma cruzi, 2 h exposure, then 72 h in drug-free medium, p = 0.009, read-out: less trypomastigotes than control (inhibition of metacyclogenesis). Here is the method: After the stress, the cells were washed and incubated with TAU drug-free supplemented with 10 mM L-proline, 50 mM L-sodium glutamate, 2 mM L-sodium aspartate and 10 mM D-glucose (TAU3AAG medium) for 72 h. The total number of differentiated trypomastigotes was counted in Neubauer's chamber to assess the inhibition percentage.

Series [2] concerns Hep G2 cells. Set-up: method as in PMID 22400995, PMID 18489163, PMID 17321026. To be noted: cited from earlier work.
Series [3] concerns trypomastigotes infecting Vero cells. Put plainly: Infectivity assay (treatment before or during infection of Vero cells). In kind it is cell-based, Trypanosoma cruzi. Here is the method: The trypomastigotes were treated with isoobtusilactone A (LC50/4 h of trypomastigotes) for 4 h, while the control trypomastigotes were incubated with drug-free medium for 4 h. These trypomastigotes were then seeded into 96-well plates (4 × 10^4 parasites per well) with already adhered Vero cells at a ratio of 10 parasites per host cell.
After 20 h of infection, the infected Vero cell culture with intracellular amastigotes was fixed, stained with DAPI, photographed, and analyzed as described for antiproliferative assay.
Already adhered Vero cells were incubated with recently collected trypomastigotes for 4 h in a medium containing isoobtusilactone A (LC50/4 h of amastigotes) or in a drug-free medium (negative control). After 4 h, the host cells were washed and drug-free fresh medium was added. The cells were incubated for another 20 h and then fixed, stained, photographed, and analyzed as described above.

Series [4] relates to epimastigotes of T. cruzi (Dm28c, TcI). In words: Epimastigote cell viability assay (MTS/PMS), Dm28c. The format is cell-based, Trypanosoma cruzi. As to the method:
Epimastigote forms of three strains of T. cruzi, including Dm28c (TcI), CL Brener (TcVI), and Y strain (TcII), were maintained in liver infusion tryptose (LIT) medium supplemented with 10% fetal bovine serum at 28°C [16] were kindly provided by Oswaldo Cruz Institute/Fiocruz. For the experiments, exponential phase cultures were used. All assays were performed in triplicates in 96-well plates.
The effect of the isolated compounds on the viability of epimastigote forms of Dm28c strain was determined by MTS [3-(4,5-dimethylthiazol-2-yl)-5-(3-carboxymethoxyphenyl)-2-(4-sulfophenyl)-2H-tetrazolium bromide] with PMS (5-methyl-phenazinium methyl sulfate) colorimetric assay, as described by Nunes et al.. […]
The absorbance of the formazan was measured at 490 nm using a microplate reader (Asys Expert Plus -Biochrom). In parallel, we determined the effect of 1% DMSO (negative control) and benznidazole (positive control) on the viability of epimastigotes and a replicate of each treatment was performed by fixing the epimastigotes with 4% paraformaldehyde prior to the addition of MTS/PMS (basal absorbance control).
The 50% cytotoxic concentration (CC50), x % inhibitory concentration (ICx = IC25, IC50, IC75, or IC90), and 50% lethal concentration (LC50) values were obtained from the percentage of inhibition/death versus log concentration of each compound, by nonlinear regression with variable slope and automatic withdrawal of outliers with ROUT coefficient (Q = 5). […] Graphpad Prism software version 7.04 was used for all regressions.

Series [5] relates to Vero cells (CCL-81). Set-up: method as in Nunes et al., 2020. To be noted: 24 hours of treatment; confidence interval in brackets; ref Nunes et al., 2020; read-out: Vero cells (CCL-81) CC50 (CI); cited from earlier work.
Where [6] appears, read: treatment simultaneous to the infection, LC50/4 h of amastigote (20.75 μM).
[7] abbreviates: trypomastigotes treated before infection, LC50/4 h of trypomastigote.

`C=C1OC(=O)/C(=C/CCCCCCCCCCCCC)[C@@H]1O` [Isoobtusilactone A, isoobtusilactone A]: the inhibition (usually the relative decrease from the control value, in per cent) at 2.75 µM in series [1] came out at 43%. Besides, the “effect on tumor cells” value in series [2] is listed as “inducing apoptosis”. In series [3] (setting [6]), the “reduction in the number of amastigotes per cell” value was found to be 65% and the “reduction in the number of infected cells” value is 43%. Besides, in series [3] (setting [7]), the “reduction in the number of amastigotes per cell” value was roughly 40% and the “reduction in the number of infected cells” value is recorded as 20%. Also, the “activity at concentrations below 50 μg/mL in epimastigotes” value in series [4] (72 h of treatment, Dm28c) is reported as “exhibited activity”. In addition, in series [4] (Trypanosoma cruzi, 4 h of treatment, Na = not active, read-out: Epimastigotes (Dm28c) IC50 - 4h (CI)), the IC50 – broadly, the midpoint of a concentration-inhibition curve – is 10.1 µM. Further, in series [4] (Vero CC50 4 h versus epimastigote Dm28c IC50 4 h), the “SI (selectivity index)” value was 36.7. In addition, the CC50 (commonly the concentration giving 50% cytotoxicity) in series [5] is 156 µM.
